Results on 19 compounds are retold here after patent US10526337B2, “Heteroaryl derivative or pharmaceutically acceptable salt thereof, preparation method therefor, and pharmaceutical composition for preventing or treating diseases associated with PI3 kinases, containing same as active ingredient” (KOREA RESEARCH INSTITUTE OF CHEMICAL TECHNOLOGY, priority 2015, dated 2020).

In one experiment the target is T1, PI3 Kinase (p120γ) (h) (Homo sapiens, UniProt P48736).
T1 construct: endogenous in cells; host or cells: RAW264.7
T1 sequence (P48736 whole entry): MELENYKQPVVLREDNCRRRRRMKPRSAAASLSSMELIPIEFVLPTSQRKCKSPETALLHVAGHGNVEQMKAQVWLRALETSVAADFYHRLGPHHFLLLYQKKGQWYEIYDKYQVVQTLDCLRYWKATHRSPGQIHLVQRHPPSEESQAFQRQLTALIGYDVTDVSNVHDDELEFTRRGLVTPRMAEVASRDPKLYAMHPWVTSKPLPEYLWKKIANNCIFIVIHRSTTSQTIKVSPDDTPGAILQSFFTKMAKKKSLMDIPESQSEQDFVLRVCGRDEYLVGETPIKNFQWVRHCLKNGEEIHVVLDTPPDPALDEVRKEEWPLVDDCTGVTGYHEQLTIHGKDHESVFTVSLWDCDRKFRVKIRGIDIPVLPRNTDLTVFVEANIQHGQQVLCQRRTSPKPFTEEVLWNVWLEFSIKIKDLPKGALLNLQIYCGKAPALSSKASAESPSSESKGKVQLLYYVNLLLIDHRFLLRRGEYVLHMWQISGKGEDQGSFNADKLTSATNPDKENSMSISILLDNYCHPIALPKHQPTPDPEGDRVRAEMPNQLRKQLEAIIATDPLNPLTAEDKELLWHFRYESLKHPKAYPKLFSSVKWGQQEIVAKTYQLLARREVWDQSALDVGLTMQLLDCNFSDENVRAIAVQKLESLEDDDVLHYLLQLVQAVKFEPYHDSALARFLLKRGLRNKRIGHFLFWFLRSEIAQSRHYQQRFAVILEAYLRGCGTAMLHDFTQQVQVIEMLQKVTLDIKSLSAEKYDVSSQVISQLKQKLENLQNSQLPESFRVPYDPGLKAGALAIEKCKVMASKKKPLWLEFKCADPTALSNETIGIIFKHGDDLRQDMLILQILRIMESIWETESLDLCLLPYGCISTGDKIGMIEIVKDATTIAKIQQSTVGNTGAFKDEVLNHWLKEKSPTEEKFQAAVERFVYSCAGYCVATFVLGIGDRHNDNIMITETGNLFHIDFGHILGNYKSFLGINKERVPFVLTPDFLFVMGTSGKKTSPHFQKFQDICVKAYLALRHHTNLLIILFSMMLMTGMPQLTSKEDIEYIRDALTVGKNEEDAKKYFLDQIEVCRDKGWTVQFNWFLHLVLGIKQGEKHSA
The experiment in a line: Inhibition of phosphatidylinositol 3-kinase gamma (PI3K γ), pAkt Western blotting in C5a-stimulated RAW264.7 macrophages. Type of experiment: cell-based, mouse. As to conditions: ATP=10 uM, sample concentration=100 nM. The procedure:
(§1) The stimulated cells were transferred in a 1.5 mL tube, followed by centrifugation at 3000 rpm for 1 minute. 100 μL of RIPA buffer (radioimmunoprecipitation assay buffer, 50 mM Tris-HCl, 5 mM EDTA, 150 mM NaCl, 1% NP-40, 1 mM PMSF, pH 8.0; ELPIS, Korea) was added thereto, which was stored in a 4° C. refrigerator for 12 hours. Centrifugation was performed at 4° C. at 14,000 rpm for 20 minutes. The supernatant was transferred into a new 1.5 mL tube. Protein was quantified by BCA (bicinchoninic acid) method and samples were prepared. The composition of the sample was as follows: sample buffer (ELPIS, EBA-1052) 5×, protein 10 μg, and 1× sample buffer to make the total volume 20 μL. The sample was heated at 100° C. for 5 minutes. The evaporated water vapor was condensed in a refrigerator. The liquid stained on the wall was fallen down by centrifugation for a few seconds. The sample proceeded to 10% SDS (Sodium Dodecyl Sulfate) acrylamide gel for separation. The separated protein was transferred onto PVDF (poly-vinyl difluoride) membrane, followed by reaction with pAkt (phospho protein kinase B) antibody (Ser473 or Thr308; Cell signaling, 9271s or 13038s) for 12 hours at 4° C. The membrane was washed with TBST (Tris-Buffered Saline with Tween 20, 10 mM Tris-HCl, pH 7.5, 150 mM NaCl, 0.1% Tween-20) three times for 5 minutes each, to which the secondary antibody (rabbit antibody, Santacruz, sc-2004) was added, followed by reaction at room temperature for 2 hours. The membrane was washed with TBST three times for 10 minutes each, to which ECL (enhanced chemiluminescence, Thermo, NCI34095KR) was sprayed. Bands were investigated by using LAS-3000.
The inhibition of phosphatidylinositol 3 kinase gamma (PI3K γ) by those compounds prepared in Examples 1˜98 was investigated by the following experiment. The inhibition activity of each compound was measured in the following conditions: ATP=10 uM, and sample concentration=100 nM.
(§2) Macrophages (RAW264.7) cultured in DMEM (Dulbecco's Modified Eagle Medium, Hyclon, SH30243.01) supplemented with 10% fetal bovine serum (Hyclon, USA) were distributed in a 12-well plate at the density of 1,000,000 cells/well. The cells were stabilized in a 37° C. CO2 for 24 hours and then treated with each compound for 1 and half hours. The cells were treated with 10 ng/mL of C5a (complement component 5a, 10 μg/mL; R&D, 2150-C5) to increase the intracellular activity of PI3K gamma. 5 minutes later, the medium was discarded and the cells were washed with cold PBS (phosphate buffered saline, Gibco, 14190-250). PBS was then eliminated completely by using a pipette. Western blotting was performed according to the same manner as described in step 2 of Experimental Example 1 to evaluate the intracellular PI3K gamma activity.

In experiment [1] the target is T2, PI3 Kinase (p110δ/p85α) (h) (Homo sapiens, UniProt O00329).
T2 construct: endogenous in cells; host or cells: Raji
T2 sequence (O00329 whole entry): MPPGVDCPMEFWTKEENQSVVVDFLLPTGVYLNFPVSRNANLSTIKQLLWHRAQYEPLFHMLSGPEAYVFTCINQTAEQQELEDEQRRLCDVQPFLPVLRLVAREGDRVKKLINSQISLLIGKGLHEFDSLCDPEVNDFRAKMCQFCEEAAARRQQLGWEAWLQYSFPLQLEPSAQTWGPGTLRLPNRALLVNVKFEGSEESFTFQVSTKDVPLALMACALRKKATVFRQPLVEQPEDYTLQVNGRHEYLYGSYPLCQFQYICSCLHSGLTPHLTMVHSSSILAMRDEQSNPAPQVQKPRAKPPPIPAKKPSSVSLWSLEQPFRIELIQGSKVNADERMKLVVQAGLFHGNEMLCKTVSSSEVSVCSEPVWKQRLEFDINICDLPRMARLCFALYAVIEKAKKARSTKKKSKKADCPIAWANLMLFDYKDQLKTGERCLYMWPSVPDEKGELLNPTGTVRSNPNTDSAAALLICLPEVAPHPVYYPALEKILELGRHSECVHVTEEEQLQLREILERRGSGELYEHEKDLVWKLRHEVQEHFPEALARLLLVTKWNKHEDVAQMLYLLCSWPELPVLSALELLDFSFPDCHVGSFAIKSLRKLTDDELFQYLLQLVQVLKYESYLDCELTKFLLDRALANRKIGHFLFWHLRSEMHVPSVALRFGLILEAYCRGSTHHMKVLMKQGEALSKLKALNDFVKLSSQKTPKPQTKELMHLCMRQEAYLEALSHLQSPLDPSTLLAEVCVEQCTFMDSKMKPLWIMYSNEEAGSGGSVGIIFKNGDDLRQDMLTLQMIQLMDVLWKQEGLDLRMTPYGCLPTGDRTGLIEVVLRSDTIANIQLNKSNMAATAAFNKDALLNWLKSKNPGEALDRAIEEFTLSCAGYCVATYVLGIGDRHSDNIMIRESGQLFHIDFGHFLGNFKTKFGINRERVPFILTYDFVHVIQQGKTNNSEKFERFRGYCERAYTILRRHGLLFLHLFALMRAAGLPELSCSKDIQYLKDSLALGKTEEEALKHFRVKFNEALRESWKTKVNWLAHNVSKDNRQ
T2 sequence (P27986 whole entry partner): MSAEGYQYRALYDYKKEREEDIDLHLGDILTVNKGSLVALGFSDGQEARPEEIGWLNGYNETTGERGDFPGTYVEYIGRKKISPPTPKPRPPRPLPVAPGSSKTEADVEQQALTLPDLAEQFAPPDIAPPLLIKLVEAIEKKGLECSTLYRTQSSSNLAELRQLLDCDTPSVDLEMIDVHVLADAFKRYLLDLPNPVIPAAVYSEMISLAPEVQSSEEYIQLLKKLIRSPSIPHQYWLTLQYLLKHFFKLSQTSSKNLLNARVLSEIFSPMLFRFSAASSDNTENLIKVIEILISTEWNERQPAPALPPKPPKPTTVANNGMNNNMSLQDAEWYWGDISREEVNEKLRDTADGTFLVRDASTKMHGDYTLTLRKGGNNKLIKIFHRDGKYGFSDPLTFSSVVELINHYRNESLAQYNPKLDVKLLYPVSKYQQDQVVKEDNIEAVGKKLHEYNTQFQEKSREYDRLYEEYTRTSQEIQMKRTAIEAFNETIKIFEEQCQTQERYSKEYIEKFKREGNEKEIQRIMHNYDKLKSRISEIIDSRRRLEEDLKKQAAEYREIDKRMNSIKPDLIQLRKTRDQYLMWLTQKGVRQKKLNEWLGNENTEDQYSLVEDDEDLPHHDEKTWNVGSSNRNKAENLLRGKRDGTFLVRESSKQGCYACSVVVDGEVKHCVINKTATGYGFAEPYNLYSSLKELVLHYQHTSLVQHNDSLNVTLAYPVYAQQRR
The experiment in a line: Inhibition of phosphatidylinositol 3-kinase delta (PI3K δ), pAkt Western blotting in IgM-stimulated Raji cells. The experiment is classed as cell-based. As to conditions: ATP=10 uM, sample concentration=100 nM. The procedure: as §1
The inhibition of phosphatidylinositol 3 kinase delta (PI3K δ) by those compounds prepared in Examples 1˜98 was investigated by the following experiment. The inhibition activity of each compound was measured in the following conditions: ATP=10 uM, and sample concentration=100 nM.
as §2, with “Raji cells” for “Macrophages (RAW264.7)”, “RPMI1640 (Hyclone, SH30027.02)” for “DMEM (Dulbecco's Modified Eagle Medium, Hyclon, SH30243.01)”, “0.25 μg/mL” for “10 ng/mL”, “IgM (immunoglobulin M, Southern Biotech, USA)” for “C5a (complement component 5a, 10 μg/mL; R&D, 2150-C5)”, “delta. 30” for “gamma. 5”, “delta” for “gamma”

In the case of `C[C@H](Nc1ncnc2[nH]cnc(=O)c12)c1nn2ccc(Cl)c2c(=O)n1-c1ccccc1` [Example 71, (S)-5-((1-(5-chloro-4-oxo-3-phenyl-3,4-dihydropyrrolo[2,1-f][1,2,4]triazine-2-yl)ethyl)amino)pyrimido[4,5-d]pyrimidine-4(1H)-one], the IC50 against PI3 Kinase (p120γ) (h) was above 500 nM; in experiment [1] it was 10 to 500 nM.

For `C[C@H](Nc1ncnc2[nH]cnc(=O)c12)c1nc2cccc(Cl)c2c(=O)n1-c1ccccc1` [Example 66, (S)-5-((1-(5-chloro-4-oxo-3-phenyl-3,4-dihydroquinazoline-2-yl)ethyl)amino)pyrimido[4,5-d]pyrimidine-4(1H)-one], the IC50 was above 500 nM against PI3 Kinase (p120γ) (h) and 10 to 500 nM in experiment [1].

For the compound `CN1CNc2ncnc(N3CCC[C@H]3c3cc4cccc(Cl)c4c(=O)n3-c3ccccc3)c2C1=O` [Example 46, (S)-5-(2-(8-chloro-1-oxo-2-phenyl-1,2-dihydroisoquinoline-3-yl)pyrrolidine-1-yl)-3-methyl-2,3-dihydropyrimido[4,5-d]pyrimidine-4(1H)-one], the IC50 was 10 to 500 nM at PI3 Kinase (p120γ) (h) and below 10 nM in experiment [1].

Take `C[C@H](Nc1nc(N)nc2[nH]cnc(=O)c12)c1nc2cccc(Cl)c2c(=O)n1-c1cccnc1` [Example 82, (S)-7-amino-5-((1-(5-chloro-4-oxo-3-(pyridine-3-yl)-3,4-dihydroquinazoline-2-yl)ethyl)amino)pyrimido[4,5-d]pyrimidine-4(1H)-one]: the IC50 (on PI3 Kinase (p120γ) (h); in experiment [1]) was 10 to 500 nM in each case.

For `CC[C@H](Nc1nc(N)nc2[nH]cnc(=O)c12)c1nc2cccc(F)c2c(=O)n1-c1ccccc1` [Example 89, (S)-7-amino-5-((1-(5-fluoro-4-oxo-3-phenyl-3,4-dihydroquinazoline-2-yl)propyl)amino)pyrimido[4,5-d]pyrimidine-4(1H)-one], the IC50 (on PI3 Kinase (p120γ) (h); in experiment [1]) was 10 to 500 nM each time.

On to `CC[C@H](Nc1ncnc2c1C(=O)N(C(C)C)CN2)c1nc2cccc(F)c2c(=O)n1-c1ccccc1` [Example 65, (S)-5-(1-(5-fluoro-4-oxo-3-phenyl-3,4-dihydroquinazoline-2-yl)propylamino)-3-isopropyl-2,3-dihydropyrimido[4,5-d]pyrimidine-4(1H)-one], for which the concentration for half-maximal inhibition (IC50) (against PI3 Kinase (p120γ) (h); in experiment [1]) was above 500 nM throughout.

As to `C[C@H](Nc1nc(N)nc2[nH]cnc(=O)c12)c1nn2ccc(Cl)c2c(=O)n1-c1cccc(F)c1` [Example 87, (S)-7-amino-5-((1-(5-chloro-3-(3-fluorophenyl)-4-oxo-3,4-dihydropyrrolo[2,1-f][1,2,4]triazine-2-yl)ethyl)amino)pyrimido[4,5-d]pyrimidine-4(1H)-one], the IC50 was 10 to 500 nM on PI3 Kinase (p120γ) (h) and below 10 nM in experiment [1].

Regarding `CN1CNc2ncnc(N3CCC[C@H]3c3nc4cccc(Cl)c4c(=O)n3-c3ccccc3)c2C1=O` [Example 42, (S)-5-(2-(5-chloro-4-oxo-3-phenyl-3,4-dihydroquinazoline-2-yl)pyrrolidine-1-yl)-3-methyl-2,3-dihydropyrimido[4,5-d]pyrimidine-4(1H)-one], the IC50 (at PI3 Kinase (p120γ) (h); in experiment [1]) was 10 to 500 nM in each case.

As for `Nc1nc(N2CCC[C@H]2c2nc3cccc(Cl)c3c(=O)n2-c2ccccc2)c2c(=O)nc[nH]c2n1` [Example 90, (S)-7-amino-5-(2-(5-chloro-4-oxo-3-phenyl-3,4-dihydroquinazoline-2-yl)pyrrolidine-1-yl)pyrimido[4,5-d]pyrimidine-4(1H)-one], the IC50 (on PI3 Kinase (p120γ) (h); in experiment [1]) was above 500 nM in each case.

Regarding `C[C@H](Nc1ncnc2[nH]cnc(=O)c12)c1cc2cccc(Cl)c2c(=O)n1-c1ccccc1` [Example 70, (S)-5-((1-(8-chloro-1-oxo-2-phenyl-1,2-dihydroisoquinoline-3-yl)ethyl)amino)pyrimido[4,5-d]pyrimidine-4(1H)-one], the IC50 (against PI3 Kinase (p120γ) (h); in experiment [1]) was 10 to 500 nM throughout.

In the case of `O=c1nc[nH]c2ncnc(N3CCC[C@H]3c3nc4cccc(Cl)c4c(=O)n3-c3cccc(F)c3)c12` [Example 77, (S)-5-(2-(5-chloro-3-(3-fluorophenyl)-4-oxo-3,4-dihydroquinazoline-2-yl)pyrrolidine-1-yl)pyrimido[4,5-d]pyrimidine-4(1H)-one], the IC50 (at PI3 Kinase (p120γ) (h); in experiment [1]) was above 500 nM in each case.

With `C[C@H](Nc1ncnc2[nH]cnc(=O)c12)c1nc2cccc(Cl)c2c(=O)n1-c1cccc(F)c1` [Example 68, (S)-5-((1-(5-chloro-3-(3-fluorophenyl)-4-oxo-3,4-dihydroquinazoline-2-yl)ethyl)amino)pyrimido[4,5-d]pyrimidine-4(1H)-one], the IC50 (at PI3 Kinase (p120γ) (h); in experiment [1]) was above 500 nM each time.

For the compound `C[C@H](Nc1nc(N)nc2c1C(=O)N(C)CN2)c1nc2cccc(Cl)c2c(=O)n1-c1ccccc1` [Example 48, (S)-7-amino-5-((1-(5-chloro-4-oxo-3-phenyl-3,4-dihydroquinazoline-2-yl)ethyl)amino)-3-methyl-2,3-dihydropyrimido[4,5-d]pyrimidine-4(1H)-one], the IC50 (on PI3 Kinase (p120γ) (h); in experiment [1]) was below 10 nM each time.

As to `CC[C@H](Nc1ncnc2[nH]cnc(=O)c12)c1nc2cccc(F)c2c(=O)n1-c1ccccc1` [Example 73, (S)-5-((1-(5-fluoro-4-oxo-3-phenyl-3,4-dihydroquinazoline-2-yl)propyl)amino)pyrimido[4,5-d]pyrimidine-4(1H)-one], the IC50 (on PI3 Kinase (p120γ) (h); in experiment [1]) was above 500 nM throughout.

On to `CN1CNc2nc(N)nc(N3CCC[C@H]3c3nc4cccc(Cl)c4c(=O)n3-c3ccccc3)c2C1=O` [Example 55, (S)-7-amino-5-(2-(5-chloro-4-oxo-3-phenyl-3,4-dihydroquinazoline-2-yl)pyrrolidine-1-yl)-3-methyl-2,3-dihydropyrimido[4,5-d]pyrimidine-4(1H)-one], for which the IC50 (at PI3 Kinase (p120γ) (h); in experiment [1]) was 10 to 500 nM each time.

For the compound `C[C@H](Nc1nc(N)nc2c1C(=O)N(C)CN2)c1cc2cccc(Cl)c2c(=O)n1-c1ccccc1` [Example 52, (S)-7-amino-5-((1-(8-chloro-1-oxo-2-phenyl-1,2-dihydroisoquinoline-3-yl)ethyl)amino)-3-methyl-2,3-dihydropyrimido[4,5-d]pyrimidine-4(1H)-one], the IC50 (on PI3 Kinase (p120γ) (h); in experiment [1]) was below 10 nM each time.

For `C[C@H](Nc1ncnc2[nH]cnc(=O)c12)c1nc2cccc(Cl)c2c(=O)n1-c1cccnc1` [Example 67, (S)-5-((1-(5-chloro-4-oxo-3-(pyridine-3-yl)-3,4-dihydroquinazoline-2-yl)ethyl)amino)pyrimido[4,5-d]pyrimidine-4(1H)-one], the IC50 (against PI3 Kinase (p120γ) (h); in experiment [1]) was above 500 nM in each case.

On to `C[C@H](Nc1nc(N)nc2[nH]cnc(=O)c12)c1nc2cccc(Cl)c2c(=O)n1-c1cccc(F)c1` [Example 83, (S)-7-amino-5-((1-(5-chloro-3-(3-fluorophenyl)-4-oxo-3,4-dihydroquinazoline-2-yl)ethyl)amino)pyrimido[4,5-d]pyrimidine-4(1H)-one], for which the IC50 (at PI3 Kinase (p120γ) (h); in experiment [1]) was above 500 nM throughout.

On to `C[C@H](Nc1ncnc2c1C(=O)N(C)CN2)c1nc2cccc(Cl)c2c(=O)n1-c1ccccc1` [Example 34, (S)-5-((1-(5-chloro-4-oxo-3-phenyl-3,4-dihydroquinazoline-2-yl)ethyl)amino)-3-methyl-2,3-dihydropyrimido[4,5-d]pyrimidine-4(1H)-one], for which the IC50 was 10 to 500 nM against PI3 Kinase (p120γ) (h) and below 10 nM in experiment [1].
